Test results as given in patent US20090182003A1, “Methods and Compositions for Treatment Cell Proliferative Disorders” (President and Fellows of Harvard College, priority 2006, published 2009).

Experiments:
human pim-2 = human pim-2 (Homo sapiens, UniProt Q9P1W9); test: Kinase panel screen, Pim-2; assay type: biochemical; settings: kinase reaction with 10 or 100 μM ATP
FL5.12 cells = test: Growth inhibition of hematopoietic cell line FL5.12; assay type: cell-based; settings: 0.1, 1, 10 and 100 μM, 24 hours, in the presence of IL-3, Coulter cell count
Method: Hematopoietic cell line FL5.12 cells were seed at equal density and grown in the presence of IL-3, a growth factor. Cells were then treated for 24 hours with 0.1, 1, 10 and 100 μM resveratrol. Cells were counted with a Coulter particle counter to determine cell inhibition by resveratrol.

Rsk2 = Rsk2 (Homo sapiens, UniProt P51812); test: Kinase panel screen, Rsk2; assay type: biochemical; settings: 20 μM resveratrol
Sequence of Rsk2 (P51812 whole entry): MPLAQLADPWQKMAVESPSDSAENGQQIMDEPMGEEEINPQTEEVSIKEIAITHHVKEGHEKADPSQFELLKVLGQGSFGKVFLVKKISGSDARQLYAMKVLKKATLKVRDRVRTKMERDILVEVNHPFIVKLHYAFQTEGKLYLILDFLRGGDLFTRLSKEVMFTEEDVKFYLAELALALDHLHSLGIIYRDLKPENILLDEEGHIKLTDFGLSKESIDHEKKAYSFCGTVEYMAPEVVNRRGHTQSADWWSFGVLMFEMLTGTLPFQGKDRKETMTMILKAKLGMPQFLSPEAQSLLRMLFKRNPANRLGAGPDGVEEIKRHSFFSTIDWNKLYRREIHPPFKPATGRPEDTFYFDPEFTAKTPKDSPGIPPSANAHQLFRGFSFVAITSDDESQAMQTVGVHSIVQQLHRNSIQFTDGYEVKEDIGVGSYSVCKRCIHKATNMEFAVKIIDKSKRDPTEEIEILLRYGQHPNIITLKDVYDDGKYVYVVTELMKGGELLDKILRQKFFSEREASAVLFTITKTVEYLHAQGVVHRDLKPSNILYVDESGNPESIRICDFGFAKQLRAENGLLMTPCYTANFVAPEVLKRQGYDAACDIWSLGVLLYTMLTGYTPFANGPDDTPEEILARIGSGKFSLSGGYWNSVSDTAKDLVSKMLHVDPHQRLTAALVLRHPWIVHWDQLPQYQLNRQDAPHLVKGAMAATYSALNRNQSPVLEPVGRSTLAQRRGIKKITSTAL

PKC = test: Kinase panel screen, PKC; settings: concentration of 20 micromolar
PI3K = test: Kinase panel screen, PI3K; settings: concentrations up to 20 micromolar
human JAK2 = human JAK2 (Homo sapiens, UniProt O60674); test: Kinase panel screen, JAK2; assay type: biochemical; settings: kinase reaction with 10 or 100 μM ATP
Sequence of human JAK2 (O60674 whole entry): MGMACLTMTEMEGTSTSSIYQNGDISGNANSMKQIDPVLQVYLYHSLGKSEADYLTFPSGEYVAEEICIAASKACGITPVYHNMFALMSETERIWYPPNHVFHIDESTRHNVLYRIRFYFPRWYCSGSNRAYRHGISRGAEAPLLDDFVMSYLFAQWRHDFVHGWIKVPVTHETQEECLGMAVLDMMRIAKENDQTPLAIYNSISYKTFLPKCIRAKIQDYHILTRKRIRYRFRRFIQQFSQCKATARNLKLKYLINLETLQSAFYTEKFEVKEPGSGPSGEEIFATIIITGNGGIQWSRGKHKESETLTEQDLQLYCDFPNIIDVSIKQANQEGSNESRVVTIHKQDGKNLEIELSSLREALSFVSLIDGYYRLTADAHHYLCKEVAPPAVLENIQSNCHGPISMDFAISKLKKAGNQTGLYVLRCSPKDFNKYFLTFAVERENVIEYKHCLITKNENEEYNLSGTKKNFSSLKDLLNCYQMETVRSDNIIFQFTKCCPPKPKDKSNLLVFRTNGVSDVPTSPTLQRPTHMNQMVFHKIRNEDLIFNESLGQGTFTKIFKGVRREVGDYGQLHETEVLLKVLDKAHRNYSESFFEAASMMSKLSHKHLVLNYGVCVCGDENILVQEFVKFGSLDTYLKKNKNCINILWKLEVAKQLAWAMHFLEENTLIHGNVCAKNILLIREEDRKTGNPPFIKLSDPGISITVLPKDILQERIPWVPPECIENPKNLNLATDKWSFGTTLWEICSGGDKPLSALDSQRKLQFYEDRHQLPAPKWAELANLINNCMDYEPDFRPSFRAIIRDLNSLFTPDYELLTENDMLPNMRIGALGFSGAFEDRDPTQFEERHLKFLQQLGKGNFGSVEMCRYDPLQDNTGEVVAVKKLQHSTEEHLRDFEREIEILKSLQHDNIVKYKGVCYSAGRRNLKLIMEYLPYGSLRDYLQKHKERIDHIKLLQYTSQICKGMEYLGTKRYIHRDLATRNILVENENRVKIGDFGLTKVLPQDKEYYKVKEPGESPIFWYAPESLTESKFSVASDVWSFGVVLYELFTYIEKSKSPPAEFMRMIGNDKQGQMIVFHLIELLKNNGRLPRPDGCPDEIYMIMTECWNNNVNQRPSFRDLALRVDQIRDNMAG

Src = Src (Homo sapiens, UniProt P12931); test: Kinase panel screen, Src; assay type: biochemical; settings: concentration of 20 micromolar
Sequence of Src (P12931 whole entry, species assumed): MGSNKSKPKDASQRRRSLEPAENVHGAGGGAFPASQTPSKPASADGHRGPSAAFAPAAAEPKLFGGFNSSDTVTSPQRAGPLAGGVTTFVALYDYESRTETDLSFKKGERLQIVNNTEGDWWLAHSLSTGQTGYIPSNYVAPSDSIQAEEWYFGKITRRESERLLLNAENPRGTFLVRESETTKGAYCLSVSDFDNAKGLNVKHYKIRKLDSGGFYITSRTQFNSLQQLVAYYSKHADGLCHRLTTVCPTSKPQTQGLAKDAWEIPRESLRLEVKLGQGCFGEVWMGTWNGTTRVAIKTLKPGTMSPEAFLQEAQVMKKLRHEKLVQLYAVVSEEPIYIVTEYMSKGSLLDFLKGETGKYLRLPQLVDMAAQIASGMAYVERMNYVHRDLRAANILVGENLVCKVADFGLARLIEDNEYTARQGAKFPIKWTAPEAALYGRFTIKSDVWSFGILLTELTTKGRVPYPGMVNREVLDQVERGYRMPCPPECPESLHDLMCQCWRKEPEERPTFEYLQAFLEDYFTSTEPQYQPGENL

human p70S6K = human p70S6K (Homo sapiens, UniProt P23443); test: Kinase panel screen, p70S6K; assay type: biochemical; settings: 10 or 100 μM ATP; 0.01-100 μM resveratrol
Sequence of human p70S6K (P23443 whole entry): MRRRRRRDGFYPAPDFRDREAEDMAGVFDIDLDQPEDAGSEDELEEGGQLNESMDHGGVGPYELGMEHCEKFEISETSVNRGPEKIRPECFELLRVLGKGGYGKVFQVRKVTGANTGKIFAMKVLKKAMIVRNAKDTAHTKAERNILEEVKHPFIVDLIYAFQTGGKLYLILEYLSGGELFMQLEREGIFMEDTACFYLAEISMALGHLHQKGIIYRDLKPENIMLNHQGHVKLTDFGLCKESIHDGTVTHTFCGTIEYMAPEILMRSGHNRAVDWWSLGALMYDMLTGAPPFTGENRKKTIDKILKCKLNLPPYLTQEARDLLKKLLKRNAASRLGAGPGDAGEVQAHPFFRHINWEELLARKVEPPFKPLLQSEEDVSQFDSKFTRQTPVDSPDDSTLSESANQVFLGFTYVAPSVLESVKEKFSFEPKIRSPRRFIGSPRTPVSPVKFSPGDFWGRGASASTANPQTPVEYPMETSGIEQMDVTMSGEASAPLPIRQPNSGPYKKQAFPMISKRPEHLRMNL

NLK = biological target: T1, NLK (Homo sapiens, UniProt Q9UBE8); test: Kinase panel screen, NLK; assay type: biochemical; settings: 10 μM ATP; 0.01-100 μM resveratrol
T1 sequence (Q9UBE8 1-527): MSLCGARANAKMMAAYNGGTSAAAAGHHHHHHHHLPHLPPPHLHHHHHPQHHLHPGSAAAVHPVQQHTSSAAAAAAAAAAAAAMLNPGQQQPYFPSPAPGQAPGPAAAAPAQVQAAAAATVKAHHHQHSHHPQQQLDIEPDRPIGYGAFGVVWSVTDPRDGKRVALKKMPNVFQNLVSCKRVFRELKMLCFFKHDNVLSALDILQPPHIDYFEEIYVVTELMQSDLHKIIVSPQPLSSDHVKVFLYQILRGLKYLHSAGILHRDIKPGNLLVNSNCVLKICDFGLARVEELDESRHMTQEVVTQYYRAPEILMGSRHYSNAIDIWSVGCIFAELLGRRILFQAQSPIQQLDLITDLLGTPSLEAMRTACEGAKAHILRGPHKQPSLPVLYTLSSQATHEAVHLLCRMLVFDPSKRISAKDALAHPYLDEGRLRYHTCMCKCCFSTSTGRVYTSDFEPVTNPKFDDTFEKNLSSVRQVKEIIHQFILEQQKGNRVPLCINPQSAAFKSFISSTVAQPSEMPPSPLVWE

Sequence of human pim-2 (Q9P1W9 whole entry): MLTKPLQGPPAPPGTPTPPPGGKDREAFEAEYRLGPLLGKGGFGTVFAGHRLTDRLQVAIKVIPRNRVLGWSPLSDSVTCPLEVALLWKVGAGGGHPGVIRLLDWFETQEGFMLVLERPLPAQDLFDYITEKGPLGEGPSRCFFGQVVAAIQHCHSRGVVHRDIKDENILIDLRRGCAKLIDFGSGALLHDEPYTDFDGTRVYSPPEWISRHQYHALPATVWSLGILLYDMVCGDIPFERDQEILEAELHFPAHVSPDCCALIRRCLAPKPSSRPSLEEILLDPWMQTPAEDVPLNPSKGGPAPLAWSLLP

IC50 (human pim-2): 1490 nM | inhibition at 20 µM (Rsk2): ~68% | Inhibition of PI3K (in words) (PI3K): no inhibition | IC50 (human JAK2): 1470 nM | Inhibition of p70S6K (in words) (human p70S6K): specific inhibitor | Inhibition of NLK (in words) (NLK): specific inhibitor
Compound: Oc1ccc(C=Cc2cc(O)cc(O)c2)cc1 [resveratrol, 3,5, 4′-trihydroxystilbene]
Inhibition of FL5.12 cell growth (in words) (FL5.12 cells): dose dependent inhibition | Inhibition of PKC (in words) (PKC): either not inhibited or only weakly inhibited | Inhibition of Src (in words) (Src): either not inhibited or only weakly inhibited
